This is an account of results in PubChem BioAssay AID330 (DTP/NCI, 2004).

For the test, the system named is P388 leukemia ip, CD2F1 mice, survival T/C. Put plainly: NCI In Vivo Anticancer Drug Screen. Data for tumor model P388 Leukemia (intraperitoneal) in CD2F1 (CDF1) mice. To be noted: endpoint: median survival time, higher = longer survival. In a few lines:
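Mice carrying the transplanted tumor received test compound or vehicle. Survival was recorded in each group, and the value is the treated-group measurement divided by that of the vehicle-treated control group.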

[1] abbreviates: dose: 50.0 mg/kg/injection, schedule: Q01DX005 (ip), vehicle: saline.
Setting [2] is: dose: 50.0 mg/kg/injection, schedule: Q01DX005 (ip), vehicle: Klucel (hydroxypropylcellulose) (HPC).
The mark [3] stands for this setting: dose: 50.0 mg/kg/injection, schedule: Q01DX009 (ip), vehicle: saline with Tween-80.
The mark [4] stands for this setting: dose: 100.0 mg/kg/injection, schedule: Q01DX009 (ip), vehicle: saline with Tween-80.
Setting [5] is: dose: 200.0 mg/kg/injection, schedule: Q01DX009 (ip), vehicle: saline with Tween-80.
Setting [6] is: dose: 12.5 mg/kg/injection, schedule: Q01DX009 (ip), vehicle: Klucel (hydroxypropylcellulose) (HPC).
[7] abbreviates: dose: 25.0 mg/kg/injection, schedule: Q01DX009 (ip), vehicle: Klucel (hydroxypropylcellulose) (HPC).
Setting [8] is: dose: 50.0 mg/kg/injection, schedule: Q01DX009 (ip), vehicle: Klucel (hydroxypropylcellulose) (HPC).
Setting [9] is: dose: 50.0 mg/kg/injection, schedule: Q01DX005 (ip), vehicle: saline with Tween-80.

Values joined by “and” are separate entries in the source; they are usually repeats but may differ in a detail not shown here. Identical values can stand only once. Inconclusive results and toxic doses are left out. Peptide text beside a SMILES is read from it.

As to `CC(N)C(=O)NC(Cc1ccc(O)cc1)C(=O)NC(Cc1ccccc1)C(N)=O` (stereo not drawn) (H-Ala-Tyr-Phe-NH2; configuration not given here), the T/C was 102 % of control under setting [1]; 101 % of control (dose: 100.0 mg/kg/injection, schedule: Q01DX005 (ip), vehicle: saline); 101 % of control (dose: 200.0 mg/kg/injection, schedule: Q01DX005 (ip), vehicle: saline).
`C=C1C(=O)C23C(OC(=O)CCCCCCCCC)C1CCC2C12COC3(O)C(O)C1C(C)(C)CCC2O` (stereo not drawn): the T/C (dose: 3.75 mg/kg/injection, schedule: Q01DX009 (ip), vehicle: saline with Tween-80) is 103 % of control; the T/C (dose: 7.5 mg/kg/injection, schedule: Q01DX009 (ip), vehicle: saline with Tween-80) is 98 % of control; the T/C (dose: 15.0 mg/kg/injection, schedule: Q01DX009 (ip), vehicle: saline with Tween-80) was 96 % of control; the T/C (dose: 30.0 mg/kg/injection, schedule: Q01DX009 (ip), vehicle: saline with Tween-80) is 106 % of control.
With `CSc1ccc(OC(=O)Nc2ccc(Cl)c(Cl)c2)c(C)c1`, the T/C was 87 % of control (dose: 50.0 mg/kg/injection, schedule: Q01DX009 (ip), vehicle: saline + alcohol); 87 % of control (dose: 100.0 mg/kg/injection, schedule: Q01DX009 (ip), vehicle: saline + alcohol); 95 % of control (dose: 200.0 mg/kg/injection, schedule: Q01DX009 (ip), vehicle: saline + alcohol).
For `O=CN1CCN(c2ccc([N+](=O)[O-])c3no[n+]([O-])c23)CC1`, the T/C runs as follows: (dose: 1.87 mg/kg/injection, schedule: Q01DX009 (ip), vehicle: saline) 107 % of control; (dose: 1.87 mg/kg/injection, schedule: Q01DX009 (ip), vehicle: suspension in saline) 94 % of control; (dose: 3.75 mg/kg/injection, schedule: Q01DX009 (ip), vehicle: saline) 92 % of control; (dose: 3.75 mg/kg/injection, schedule: Q01DX009 (ip), vehicle: suspension in saline) 113 % of control; (dose: 7.5 mg/kg/injection, schedule: Q01DX009 (ip), vehicle: saline) 86 % of control; (dose: 7.5 mg/kg/injection, schedule: Q01DX009 (ip), vehicle: suspension in saline) 116 % of control. Further, the T/C by setting is: (dose: 15.0 mg/kg/injection, schedule: Q01DX009 (ip), vehicle: saline) 91 % of control; (dose: 15.0 mg/kg/injection, schedule: Q01DX009 (ip), vehicle: suspension in saline) 116 % of control.
Take `O=C1C(=C(Cl)Cl)C(=O)c2ccccc21`: the T/C is 103 % of control (dose: 12.5 mg/kg/injection, schedule: Q01DX005 (ip), vehicle: saline); 100 % of control (dose: 25.0 mg/kg/injection, schedule: Q01DX005 (ip), vehicle: saline); 91 % of control under setting [2]; 95 % of control under setting [1].
`Cc1cccc(C2=Nc3ccccc3N3CC=CC=C23)c1`: the T/C is, setting by setting: under setting [3], 110 % of control; under setting [4], 97 % of control; under setting [5], 92 % of control.
As for `O=C(NNc1ccc(F)cc1)C12CC3CC(CC(C3)C1)C2`, the T/C (dose: 12.5 mg/kg/injection, schedule: Q01DX009 (ip), vehicle: saline with Tween-80) was 103 % of control; the T/C (dose: 25.0 mg/kg/injection, schedule: Q01DX009 (ip), vehicle: saline with Tween-80) was 99 % of control; the T/C under setting [3] was 87 % of control.
For `CN(C/C=C/CN(C)N=O)N=O`, the T/C is, setting by setting: under setting [6], 116 % of control; under setting [7], 118 % of control; under setting [8], 96 % of control.
Turning to `CC(C)(C)c1ccnc(C(O)(C(F)(F)F)C(F)(F)F)c1`, the T/C by setting is: (dose: 25.0 mg/kg/injection, schedule: Q01DX005 (ip), vehicle: Klucel (hydroxypropylcellulose) (HPC)) 93 % of control; under setting [2], 101 % of control; (dose: 100.0 mg/kg/injection, schedule: Q01DX005 (ip), vehicle: Klucel (hydroxypropylcellulose) (HPC)) 108 % of control; (dose: 200.0 mg/kg/injection, schedule: Q01DX005 (ip), vehicle: Klucel (hydroxypropylcellulose) (HPC)) 103 % of control.
On to `O=c1oc2c(c(N(c3ccccc3)c3ccccc3)c1Cl)CCc1nc(-c3ccccc3)sc1-2`, for which the T/C under setting [9] is 91 % of control; the T/C (dose: 100.0 mg/kg/injection, schedule: Q01DX005 (ip), vehicle: saline with Tween-80) is 94 % of control; the T/C (dose: 200.0 mg/kg/injection, schedule: Q01DX005 (ip), vehicle: saline with Tween-80) was 88 % of control.
Turning to `NNC(=O)C(=O)Nc1ccc(F)cc1`, the T/C is, setting by setting: under setting [3], 96 % of control; under setting [4], 100 % of control.
Turning to `CCCCCCCC/C=C/CCCCCCCC(=O)NCCCN` (tested in a mixture with another compound), the T/C was 104 % of control (dose: 25.0 mg/kg/injection, schedule: Q04DX002 (ip), vehicle: saline) and 103 % of control (dose: 50.0 mg/kg/injection, schedule: Q04DX002 (ip), vehicle: saline).
Consider `COc1c2c(nc3ccccc13)-c1cc3c(c(=O)n1C2)COC(=O)C3(O)CC(=O)N1CCOCC1` (stereo not drawn), for which the T/C is, setting by setting: (dose: 12.5 mg/kg/injection, schedule: Q01DX009 (ip), vehicle: saline) 150 % of control; (dose: 50.0 mg/kg/injection, schedule: Q01DX009 (ip), vehicle: saline) 160 % of control; (dose: 100.0 mg/kg/injection, schedule: Q01DX009 (ip), vehicle: saline) 161 % of control; (dose: 100.0 mg/kg/injection, schedule: Q01DX009 (ip), vehicle: suspension in saline) 169 % of control; (dose: 200.0 mg/kg/injection, schedule: Q01DX009 (ip), vehicle: suspension in saline) 104 % of control.
In the case of `CC(C)(C)C1=CC(=C/C=C/c2cc(C(C)(C)C)[o+]c(C(C)(C)C)c2)C=C(C(C)(C)C)O1`, the T/C is 105 % of control (dose: 1.56 mg/kg/injection, schedule: Q01DX009 (ip), vehicle: Klucel (hydroxypropylcellulose) (HPC)); 96 % of control (dose: 3.12 mg/kg/injection, schedule: Q01DX009 (ip), vehicle: Klucel (hydroxypropylcellulose) (HPC)); 109 % of control and 111 % of control (dose: 6.25 mg/kg/injection, schedule: Q01DX009 (ip), vehicle: Klucel (hydroxypropylcellulose) (HPC)); 108 % of control and 116 % of control under setting [6]; 109 % of control under setting [7].
For `c1ccc2c(c1)SCC1COCOC21` (stereo not drawn), the T/C (dose: 100.0 mg/kg/injection, schedule: Q04DX003 (ip), vehicle: saline with Tween-80) was 100 % of control; the T/C (dose: 200.0 mg/kg/injection, schedule: Q04DX003 (ip), vehicle: saline with Tween-80) was 103 % of control; the T/C (dose: 400.0 mg/kg/injection, schedule: Q04DX003 (ip), vehicle: saline with Tween-80) was 98 % of control.
Take `[Cl][Hg][CH]1CCCC2OC(C(Cl)(Cl)Cl)OC21` (stereo not drawn): the T/C (dose: 3.13 mg/kg/injection, schedule: Q01DX001 (ip), vehicle: saline with Tween-80) was 113 % of control; the T/C (dose: 6.25 mg/kg/injection, schedule: Q01DX001 (ip), vehicle: saline with Tween-80) is 97 % of control; the T/C (dose: 12.5 mg/kg/injection, schedule: Q01DX001 (ip), vehicle: saline with Tween-80) is 94 % of control.
As for `Cc1ccc(CCN(S(=O)(=O)c2ccc(C)cc2)S(=O)(=O)c2ccc(C)cc2)cc1`, the T/C runs as follows: under setting [8], 92 % of control; (dose: 100.0 mg/kg/injection, schedule: Q01DX009 (ip), vehicle: Klucel (hydroxypropylcellulose) (HPC)) 96 % of control; (dose: 200.0 mg/kg/injection, schedule: Q01DX009 (ip), vehicle: Klucel (hydroxypropylcellulose) (HPC)) 86 % of control.
On to `COC(=O)/C=C(\O)C(Cc1cc(OC)c2c(c1O)C(=O)c1c(OC)cccc1C2=O)C(=O)OC` (stereo not drawn), for which the T/C by setting is: (dose: 100.0 mg/kg/injection, schedule: Q01DX001 (ip), vehicle: saline with Tween-80) 101 % of control; (dose: 200.0 mg/kg/injection, schedule: Q01DX001 (ip), vehicle: saline with Tween-80) 102 % of control; (dose: 400.0 mg/kg/injection, schedule: Q01DX001 (ip), vehicle: saline with Tween-80) 97 % of control.
As to `CNCCCN1c2ccccc2CCc2ccccc21`, under setting [9], the T/C was 103 % of control.
On to `CCCCCCCCCC(=O)OC(C)C(=O)N(CCCC)CCCC` (stereo not drawn), for which the T/C runs as follows: under setting [4], 110 % of control; under setting [5], 102 % of control; (dose: 400.0 mg/kg/injection, schedule: Q01DX009 (ip), vehicle: saline with Tween-80) 106 % of control.
